US10765114B2, “4-amino-6-(pyridyl and 2-substitutedphenyl)-picolinates and 6-amino-2-(pyridyl and 2-substitutedphenyl)-pyrimidine-4-carboxylates and their use as herbicides” (Dow AgroSciences LLC, priority 2013, dated 2020)
Like-named read-outs stand apart in the source and are kept apart here.

Experiments:
[1] = tested on: Key Grass and Sedge Weeds as well as Grass Crops; assay: Post-Emergent Test II (Table 6); type: in vivo; conditions: post-emergence, 336 h, 14 days after application; for pest or weed control at 70 g/ha: 70 g ai/ha; for pest or weed control at 140 g/ha: 140 g ai/ha
In short: (§1)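 Growth stage at treatment: first or second true leaf. Application: compound in acetone/DMSO diluted into an adjuvant-containing aqueous mix, sprayed at 187 L/ha at several rates. Assessment: visual 0-100% injury at 14 days against untreated plants.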

[2] = tested on: Key Broadleaf Weed and Crop Species; assay: Post-Emergent Test II (Table 5); type: in vivo; conditions: post-emergence, 336 h; for pest or weed control at 70 g/ha: application rate 70 (kg ai/ha; footnote: g ai/ha); for pest or weed control at 140 g/ha: application rate 140 (kg ai/ha; footnote: g ai/ha)
In short: as §1

[3] = CYPSS, read-out: Visual Growth Reduction (%) 14 Days After Application CYPSS
[4] = DIGSA: crabgrass (Digitaria sanguinalis), read-out: Visual Growth Reduction (%) 14 Days After Application DIGSA
[5] = ECHSS, read-out: Visual Growth Reduction (%) 14 Days After Application ECHSS
[6] = ORYSS (crop), read-out: Visual Growth Reduction (%) 14 Days After Application ORYSS
[7] = SORVU: grain sorghum (Sorghum vulgare), read-out: Visual Growth Reduction (%) 14 Days After Application SORVU
[8] = TRZSS (crop), read-out: Visual Growth Reduction (%) 14 Days After Application TRZSS
[9] = ZEAMX: maize, corn (Zea mays), read-out: Visual Growth Reduction (%) 14 Days After Application ZEAMX
[10] = Abutilon theophrasti, ABUTH: velvetleaf (Abutilon theophrasti), read-out: Visual Growth Reduction (%) 14 Days After Application ABUTH
[11] = Amaranthus retroflexus, AMARE: redroot pigweed (Amaranthus retroflexus), read-out: Visual Growth Reduction (%) 14 Days After Application AMARE
[12] = Brassica napus, BRSSS: oilseed rape, canola (Brassica napus), read-out: Visual Growth Reduction (%) 14 Days After Application BRSSS
[13] = Chenopodium album, CHEAL: lambsquarters (Chenopodium album), read-out: Visual Growth Reduction (%) 14 Days After Application CHEAL
[14] = Euphorbia heterophylla, EPHHL: wild poinsettia (Euphorbia heterophylla), read-out: Visual Growth Reduction (%) 14 Days After Application EPHHL
[15] = Helianthus annuus, HELAN: sunflower (Helianthus annuus), read-out: Visual Growth Reduction (%) 14 Days After Application HELAN
[16] = Viola tricolor, VIOTR: wild pansy (Viola tricolor), read-out: Visual Growth Reduction (%) 14 Days After Application VIOTR
[17] = SETFA: giant foxtail (Setaria faberi), read-out: Visual Growth Reduction (%) 14 Days After Application SETFA

Row | Structure (SMILES) | pest or weed control at 70 g/ha [1, 3] [%] | pest or weed control at 140 g/ha [1, 3] [%] | pest or weed control at 70 g/ha [1, 4] [%] | pest or weed control at 140 g/ha [1, 4] [%] | pest or weed control at 70 g/ha [1, 6] [%] | pest or weed control at 140 g/ha [1, 6] [%] | pest or weed control at 70 g/ha [1, 7] [%] | pest or weed control at 140 g/ha [1, 7] [%] | pest or weed control at 70 g/ha [1, 8] [%] | pest or weed control at 140 g/ha [1, 8] [%] | pest or weed control at 70 g/ha [1, 9] [%] | pest or weed control at 140 g/ha [1, 9] [%] | pest or weed control at 70 g/ha [2, 10] [%] | pest or weed control at 140 g/ha [2, 10] [%] | pest or weed control at 70 g/ha [2, 11] [%] | pest or weed control at 140 g/ha [2, 11] [%] | pest or weed control at 70 g/ha [2, 12] [%] | pest or weed control at 140 g/ha [2, 12] [%] | pest or weed control at 70 g/ha [2, 13] [%] | pest or weed control at 140 g/ha [2, 13] [%] | also measured
1 | COC(=O)c1nc(-c2ccc(Cl)c(F)c2C)nc(N)c1Cl [Compound 31] | 0 to 29 | 0 to 29 | 0 to 29 | 0 to 29 | 0 to 29 | 0 to 29 | 0 to 29 | 0 to 29 | 0 to 29 | 0 to 29 | 0 to 29 | 0 to 29 | 85 to 94 | 85 to 94 | 95 to 100 | 95 to 100 | 30 to 44 | 45 to 59 | 95 to 100 | 95 to 100 | pest or weed control at 70 g/ha [1, 5]: 0 to 29%; pest or weed control at 140 g/ha [1, 5]: 0 to 29%; pest or weed control at 70 g/ha [2, 14]: 0 to 29%; pest or weed control at 140 g/ha [2, 14]: 0 to 29%; pest or weed control at 70 g/ha [2, 15]: 85 to 94%; pest or weed control at 140 g/ha [2, 15]: 85 to 94%; pest or weed control at 70 g/ha [2, 16]: 0 to 29%; pest or weed control at 140 g/ha [2, 16]: 0 to 29%
2 | COC(=O)c1nc(-c2ccc(C(F)(F)F)nc2OC)cc(N)c1Cl [Compound 37] | 0 to 29 | 0 to 29 | 0 to 29 | 0 to 29 | 0 to 29 | 0 to 29 | 0 to 29 | 0 to 29 | 0 to 29 | 0 to 29 | 0 to 29 | 0 to 29 | 75 to 84 | 75 to 84 | 60 to 74 | 75 to 84 | 0 to 29 | 30 to 44 | 85 to 94 | 85 to 94 | pest or weed control at 70 g/ha [1, 17]: 0 to 29%; pest or weed control at 140 g/ha [1, 17]: 0 to 29%; pest or weed control at 70 g/ha [2, 14]: 0 to 29%; pest or weed control at 140 g/ha [2, 14]: 0 to 29%; pest or weed control at 70 g/ha [2, 15]: 0 to 29%; pest or weed control at 140 g/ha [2, 15]: 60 to 74%; pest or weed control at 70 g/ha [2, 16]: 0 to 29%; pest or weed control at 140 g/ha [2, 16]: 0 to 29%
3 | COC(=O)c1nc(-c2ccc(Cl)c(F)c2OC)c(F)c(N)c1Cl [Compound 39, methyl 4-amino-3-chloro-6-(4-chloro-3-fluoro-2-methoxyphenyl)-5-fluoropicolinate] | 45 to 59 | 95 to 100 | 0 to 29 | 0 to 29 | 0 to 29 | 0 to 29 | 0 to 29 | 0 to 29 | 30 to 44 | 30 to 44 | 0 to 29 | 60 to 74 | 95 to 100 | 95 to 100 | 95 to 100 | 95 to 100 | 95 to 100 | 95 to 100 | 0 to 29 | 0 to 29 | pest or weed control at 70 g/ha [1, 5]: 0 to 29%; pest or weed control at 140 g/ha [1, 5]: 0 to 29%; pest or weed control at 70 g/ha [1, 17]: 0 to 29%; pest or weed control at 140 g/ha [1, 17]: 75 to 84%; pest or weed control at 70 g/ha [2, 14]: 45 to 59%; pest or weed control at 140 g/ha [2, 14]: 45 to 59%; pest or weed control at 70 g/ha [2, 15]: 95 to 100%; pest or weed control at 140 g/ha [2, 15]: 95 to 100%; pest or weed control at 70 g/ha [2, 16]: 95 to 100%; pest or weed control at 140 g/ha [2, 16]: 95 to 100%
4 | COC(=O)c1nc(-c2ccc(C(F)(F)F)c(F)c2C)c(F)c(N)c1Cl [Compound 41] | 0 to 29 | 95 to 100 | 0 to 29 | 0 to 29 | 0 to 29 | 0 to 29 | 0 to 29 | 0 to 29 | 0 to 29 | 0 to 29 | 0 to 29 | 45 to 59 | 75 to 84 | 60 to 74 | 0 to 29 | 0 to 29 | 0 to 29 | 0 to 29 | 45 to 59 | 85 to 94 | pest or weed control at 70 g/ha [1, 5]: 0 to 29%; pest or weed control at 140 g/ha [1, 5]: 0 to 29%; pest or weed control at 70 g/ha [2, 14]: 0 to 29%; pest or weed control at 140 g/ha [2, 14]: 45 to 59%; pest or weed control at 70 g/ha [2, 15]: 95 to 100%; pest or weed control at 140 g/ha [2, 15]: 95 to 100%; pest or weed control at 70 g/ha [2, 16]: 0 to 29%; pest or weed control at 140 g/ha [2, 16]: 0 to 29%
5 | COC(=O)c1nc(-c2ccc(C(F)(F)F)nc2OC)c(F)c(N)c1Cl [Compound 44, methyl 4-amino-5-chloro-3-fluoro-2′-methoxy-6′-(trifluoromethyl)-2,3′-bipyridine-6-carboxylate] | 0 to 29 | 0 to 29 | 0 to 29 | 0 to 29 | 0 to 29 | 0 to 29 | 0 to 29 | 0 to 29 | 0 to 29 | 0 to 29 | 0 to 29 | 0 to 29 | 45 to 59 | 75 to 84 | 0 to 29 | 95 to 100 | 45 to 59 | 60 to 74 | 85 to 94 | 85 to 94 | pest or weed control at 70 g/ha [1, 17]: 0 to 29%; pest or weed control at 140 g/ha [1, 17]: 0 to 29%; pest or weed control at 70 g/ha [2, 14]: 0 to 29%; pest or weed control at 140 g/ha [2, 14]: 0 to 29%; pest or weed control at 70 g/ha [2, 15]: 85 to 94%; pest or weed control at 140 g/ha [2, 15]: 85 to 94%; pest or weed control at 70 g/ha [2, 16]: 0 to 29%; pest or weed control at 140 g/ha [2, 16]: 0 to 29%
